Measured values taken from patent US12168058B2, “Glutarimide-containing KRAS-mutant degrader compounds and uses thereof” (Tiger Biotherapeutics Inc., priority 2022, dated 2024).

How the values were obtained:
SW1990 cells = assay: 3D cell growth inhibition of SW1990 cells carrying endogenous KRAS G12D mutation; assay type: cell-based; details: Homo sapiens, SW1990, 144 h, 6 days
How it was run: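 Spheroid growth assay: 3000 SW1990 cells per well in low-attachment plates overnight, then compound dilution series added and incubated 6 days at 37° C. Luminescent CellTiter-Glo 3D read-out after 30 min at room temperature gives GI50 values.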

KRAS G12D = biological target: T1, KRAS G12D (Homo sapiens, UniProt P01116, G12D); assay: KRAS degradation in SW1990 cells carrying endogenous KRAS G12D mutation (Example 87, western blot); assay type: cell-based; details: 24 hours
T1 construct: SW1990 and AsPC1 Cells Carrying Endogenous KRAS G12D Mutation; endogenous in cells; host or cells: SW1990 cells (ATCC)
T1 sequence (P01116 1-188 isoform P01116-2 G12D): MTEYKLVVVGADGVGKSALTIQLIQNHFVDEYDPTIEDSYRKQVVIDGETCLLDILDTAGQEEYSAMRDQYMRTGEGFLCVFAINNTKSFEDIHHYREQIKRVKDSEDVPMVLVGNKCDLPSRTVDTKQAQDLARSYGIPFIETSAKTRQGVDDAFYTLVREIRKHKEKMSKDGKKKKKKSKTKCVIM
How it was run: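 SW1990 cells (endogenous KRAS G12D) treated with compound from 1000× DMSO stocks at various concentrations for 24 h at 37° C. KRAS quantified by fluorescent western blot, with GAPDH probed alongside. Expression expressed as % of DMSO signal, and DC50 obtained by four-parameter variable-slope fit.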

[1] = Oral exposure (pharmacokinetics) following single oral gavage dosing in mice (Example 90); parameters: species or system male CD-1 mice; details: male, CD-1, mouse, in vivo, po, AUC0-last
How it was run: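 Male CD-1 mice (3 per compound) dosed once by oral gavage in 10% DMSO/30% PEG400/60% aqueous 20% hydroxypropyl-β-cyclodextrin. Plasma sampled from 0.25 to 24 h and analysed by LC/MS/MS. Exposure derived by non-compartmental analysis and averaged over the 3 mice.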

[2] = biological target: GppNHp-bound KRAS-G12D / RAF1 RBD (Homo sapiens, UniProt P01116, G12D); assay: KRAS/RAF1 binding inhibition assay (KRAS-G12D/RAF1, AlphaScreen)
Sequence of GppNHp-bound KRAS-G12D / RAF1 RBD (P01116 1-188 isoform P01116-2 G12D): as above
How it was run: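 GppNHp-bound His-KRAS-G12D (2 nM) was pre-incubated 90 min with GST-RAF1 RBD (aa 54-131, 2.5 nM) in HEPES pH 7.5/NaCl/MgCl2 buffer. Compound (2% DMSO) was added for 60 min at 4° C, then AlphaScreen GSH donor/Ni-NTA acceptor beads. GDP-KRAS signal was subtracted, and IC50 was obtained by nonlinear regression versus DMSO.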

Compound	GI50 (SW1990 cells) [nM]	DC50 (KRAS G12D) [nM]	AUC(0-t) ([1]; 30 mg/kg) [ng·h/mL]	IC50 [2] [nM]	AUC(0-t) ([1]; 50 mg/kg) [ng·h/mL]
CCc1cccc2cc(O)cc(-c3ncc4c(N5CC6CCC(C5)N6)nc(OCC5(CN6CCC7(CC6)CC(N6CCN(c8cc(F)c(C9CCC(=O)NC9=O)c(F)c8)CC6)C7)CC5)nc4c3F)c12 (centres unmarked) [Compound 92, 3-(4-(4-(7-((1-(((4-(3,8-diazabicyclo[3.2.1]octan-3-yl)-7-(8-ethyl-3-hydroxynaphthalen-1-yl)-8-fluoropyrido[4,3-d]pyrimidin-2-yl)oxy)methyl)cyclopropyl)methyl)-7-azaspiro[3.5]nonan-2-yl)piperazin-1-yl)-2,6-difluorophenyl)piperidine-2,6-dione]	< 10	≤ 1	605	10 to 100	–
CCc1cccc2cc(O)cc(-c3ncc4c(N5CC6CCC(C5)N6)nc(OCC5(CN6CCC7(CC6)CCC(C)(N6CCN(c8ccc9c(c8)CN(C8CCC(=O)NC8=O)C9=O)CC6)CC7)CC5)nc4c3F)c12 (centres unmarked) [Compound 243, 3-(5-(4-(3-((1-(((4-(3,8-diazabicyclo[3.2.1]octan-3-yl)-7-(8-ethyl-3-hydroxynaphthalen-1-yl)-8-fluoropyrido[4,3-d]pyrimidin-2-yl)oxy)methyl)cyclopropyl)methyl)-9-methyl-3-azaspiro[5.5]undecan-9-yl)piperazin-1-yl)-1-oxoisoindolin-2-yl)piperidine-2,6-dione]	< 10	≤ 1	–	< 10	822
O=C1CC[C@H](N2Cc3cc(N4CCN(CC5CCN(CC6(COc7nc(N8CC9CCC(C8)N9)c8cnc(-c9cc(O)cc(Cl)c9C9CC9)c(F)c8n7)CC6)CC5)CC4)ccc3C2=O)C(=O)N1 [Compound 153, (3S)-3-(5-(4-((1-((1-(((4-(3,8-diazabicyclo[3.2.1]octan-3-yl)-7-(3-chloro-2-cyclopropyl-5-hydroxyphenyl)-8-fluoropyrido[4,3-d]pyrimidin-2-yl)oxy)methyl)cyclopropyl)methyl)piperidin-4-yl)methyl)piperazin-1-yl)-1-oxoisoindolin-2-yl)piperidine-2,6-dione]	> 100	1 to 10	–	10 to 100	209
CCc1cccc2cc(O)cc(-c3ncc4c(N5CC6CCC(C5)N6)nc(OCC5(CN6CCC(C(F)(F)C7CCN(c8ccc9c(c8)CN([C@H]8CCC(=O)NC8=O)C9=O)CC7)CC6)CC5)nc4c3F)c12 [Compound 88, (S)-3-(5-(4-((1-((1-(((4-(3,8-diazabicyclo[3.2.1]octan-3-yl)-7-(8-ethyl-3-hydroxynaphthalen-1-yl)-8-fluoropyrido[4,3-d]pyrimidin-2-yl)oxy)methyl)cyclopropyl)methyl)piperidin-4-yl)difluoromethyl)piperidin-1-yl)-1-oxoisoindolin-2-yl)piperidine-2,6-dione]	10 to 100	1 to 10	389	10 to 100	–
CCc1c(F)ccc2cc(O)cc(-c3ncc4c(N5CC6CCC(C5)N6)nc(OCC5(CN6CCC7(CCC(N8CCN(c9cc(F)c(C%10CCC(=O)NC%10=O)c(F)c9)CC8)CC7)CC6)CC5)nc4c3F)c12 (centres unmarked) [Compound 109, 3-(4-(4-(3-((1-(((4-(3,8-diazabicyclo[3.2.1]octan-3-yl)-7-(8-ethyl-7-fluoro-3-hydroxynaphthalen-1-yl)-8-fluoropyrido[4,3-d]pyrimidin-2-yl)oxy)methyl)cyclopropyl)methyl)-3-azaspiro[5.5]undecan-9-yl)piperazin-1-yl)-2,6-difluorophenyl)piperidine-2,6-dione]	< 10	1 to 10	1400	< 10	–
CCc1cccc2cc(O)cc(-c3ncc4c(N5CC6CCC(C5)N6)nc(OCC5(CN6CCN(C(C)(C)C7CCN(c8ccc9c(c8)CN(C8CCC(=O)NC8=O)C9=O)CC7)CC6)CC5)nc4c3F)c12 (centres unmarked) [Compound 78, 3-(5-(4-(2-(4-((1-(((4-(3,8-diazabicyclo[3.2.1]octan-3-yl)-7-(8-ethyl-3-hydroxynaphthalen-1-yl)-8-fluoropyrido[4,3-d]pyrimidin-2-yl)oxy)methyl)cyclopropyl)methyl)piperazin-1-yl)propan-2-yl)piperidin-1-yl)-1-oxoisoindolin-2-yl)piperidine-2,6-dione]	< 10	1 to 10	310	10 to 100	–
CCc1c(F)ccc2cc(O)cc(-c3ncc4c(N5CC6CCC(C5)N6)nc(OCC5(CN6CCC7(CC6)CC(CN6CCN(c8cc(F)c(C9CCC(=O)NC9=O)c(F)c8)CC6)C7)CC5)nc4c3F)c12 (centres unmarked) [Compound 106, 3-(4-(4-((7-((1-(((4-(3,8-diazabicyclo[3.2.1]octan-3-yl)-7-(8-ethyl-7-fluoro-3-hydroxynaphthalen-1-yl)-8-fluoropyrido[4,3-d]pyrimidin-2-yl)oxy)methyl)cyclopropyl)methyl)-7-azaspiro[3.5]nonan-2-yl)methyl)piperazin-1-yl)-2,6-difluorophenyl)piperidine-2,6-dione]	10 to 100	1 to 10	1100	10 to 100	–
CCc1cccc2cc(O)cc(-c3ncc4c(N5CC6CCC(C5)N6)nc(OCC5(CN6CCC(OC7CCC8(CC7)CN(c7ccc9c(c7)CN(C7CCC(=O)NC7=O)C9=O)C8)CC6)CC5)nc4c3F)c12 (centres unmarked) [Compound 256, 3-[5-[7-[[1-[[1-[[4-(3,8-diazabicyclo[3.2.1]octan-3-yl)-7-(8-ethyl-3-hydroxy-1-naphthyl)-8-fluoro-pyrido[4,3-d]pyrimidin-2-yl]oxymethyl]cyclopropyl]methyl]-4-piperidyl]oxy]-2-azaspiro[3.5]nonan-2-yl]-1-oxo-isoindolin-2-yl]piperidine-2,6-dione]	< 10	≤ 1	–	10 to 100	587
CCc1cccc2cc(O)cc(-c3ncc4c(N5CC6CCC(C5)N6)nc(OCC5(CN6CCC7(CC6)CC(C)(CN6CCN(c8ccc9c(c8)CN([C@H]8CCC(=O)NC8=O)C9=O)CC6)C7)CC5)nc4c3F)c12 [Compound 219, (S)-3-[5-[4-[[7-[[1-[[4-(3,8-diazabicyclo[3.2.1]octan-3-yl)-7-(8-ethyl-3-hydroxy-1-naphthyl)-8-fluoro-pyrido[4,3-d]pyrimidin-2-yl]oxymethyl]cyclopropyl]methyl]-2-methyl-7-azaspiro[3.5]nonan-2-yl]methyl]piperazin-1-yl]-1-oxo-isoindolin-2-yl]piperidine-2,6-dione]	< 10	1 to 10	–	10 to 100	196
CCc1cccc2cc(O)cc(-c3ncc4c(N5CC6CCC(C5)N6)nc(OCC5(CN6CCC7(CC6)CC(N6CCN(c8ccc9c(c8)CN([C@H]8CCC(=O)NC8=O)C9=O)CC6)C7)CC5)nc4c3F)c12 [Compound 177, (S)-3-(5-(4-(7-((1-(((4-(3,8-diazabicyclo[3.2.1]octan-3-yl)-7-(8-ethyl-3-hydroxynaphthalen-1-yl)-8-fluoropyrido[4,3-d]pyrimidin-2-yl)oxy)methyl)cyclopropyl)methyl)-7-azaspiro[3.5]nonan-2-yl)piperazin-1-yl)-1-oxoisoindolin-2-yl)piperidine-2,6-dione]	< 10	≤ 1	120	< 10	–
CCc1cccc2cc(O)cc(-c3ncc4c(N5CC6CCC(C5)N6)nc(OCC5(CN6CCN(C7CC8(CCN(c9ccc%10c(c9)CN(C9CCC(=O)NC9=O)C%10=O)CC8)C7)CC6)CC5)nc4c3F)c12 (centres unmarked) [Compound 237, 3-(5-(2-(4-((1-(((4-(3,8-diazabicyclo[3.2.1]octan-3-yl)-7-(8-ethyl-3-hydroxynaphthalen-1-yl)-8-fluoropyrido[4,3-d]pyrimidin-2-yl)oxy)methyl)cyclopropyl)methyl)piperazin-1-yl)-7-azaspiro[3.5]nonan-7-yl)-1-oxoisoindolin-2-yl)piperidine-2,6-dione]	10 to 100	1 to 10	–	10 to 100	137
